Data published in US10508109B2 (priority 2015, dated 2019).
Counter-ions that a name gives are not always drawn. Like-named read-outs stand apart in the source and are kept apart here.

Legend:
A549 = assay: Cell-based assay, anti-proliferative activity (Cell Counting Kit-8, 72 hours); conditions: Homo sapiens, read-out: IC50 (μM) A549
How it was run: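 After compound exposure of cells in 96-well plates, growth was measured colorimetrically and converted into IC50 values.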

PC14 = assay: as above; conditions: Homo sapiens, read-out: IC50 (μM) PC14
How it was run: (§1)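 CCK-8 growth read-out at 72 h post compound exposure; 96-well seeding. IC50 from 8-point dilution (0–100 micro-M, twofold steps from 1.5625 micro-M).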

HCT-116 = assay: as above; conditions: Homo sapiens, read-out: IC50 (μM) HCT-116
How it was run: as §1

CCD-18Co = assay: as above; conditions: Homo sapiens, read-out: IC50 (μM) CCD-18Co
How it was run: as §1

HFL1 = assay: as above; conditions: Homo sapiens, read-out: IC50 (μM) HFL1
How it was run: as §1

SUV39H2 = SUV39H2 (Homo sapiens (Human), UniProt Q9H5I1); conditions: read-out: IC50 (μM) Suv 39H2 assay
Chain of SUV39H2 (Q9H5I1 whole entry): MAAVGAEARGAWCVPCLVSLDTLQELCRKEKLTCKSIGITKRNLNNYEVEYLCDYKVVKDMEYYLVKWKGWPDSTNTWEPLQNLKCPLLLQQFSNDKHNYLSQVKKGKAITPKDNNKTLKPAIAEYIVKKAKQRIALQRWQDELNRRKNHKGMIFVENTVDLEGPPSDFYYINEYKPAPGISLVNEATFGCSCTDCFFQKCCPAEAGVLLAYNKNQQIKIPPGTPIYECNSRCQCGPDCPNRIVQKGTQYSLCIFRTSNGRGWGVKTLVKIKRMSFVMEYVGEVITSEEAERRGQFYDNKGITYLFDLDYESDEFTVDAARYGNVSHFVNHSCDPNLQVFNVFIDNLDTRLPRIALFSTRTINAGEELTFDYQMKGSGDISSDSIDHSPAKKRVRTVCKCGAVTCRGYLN

[1] = A549 cells, 72 hours, Cell Counting Kit-8
[2] = PC-14, PC14 cells, 72 hours, Cell Counting Kit-8
[3] = HCT-116 cells, 72 hours, Cell Counting Kit-8
[4] = CCD-18Co cells, 72 hours, Cell Counting Kit-8
[5] = HFL1 cells, 72 hours, Cell Counting Kit-8
[6] = A549 cells, Cell Counting Kit-8, 72 hours
[7] = PC-14, PC14 cells, Cell Counting Kit-8, 72 hours
[8] = HCT-116 cells, Cell Counting Kit-8, 72 hours
[9] = CCD-18Co cells, Cell Counting Kit-8, 72 hours
[10] = HFL1 cells, Cell Counting Kit-8, 72 hours

Compound | IC50 (A549; [1]) | IC50 (PC14; [2]) | IC50 (HCT-116; [3]) | IC50 (CCD-18Co; [4]) | IC50 (HFL1; [5]) | IC50 (SUV39H2; enzyme assay) | IC50 (A549; [6]) | IC50 (PC14; [7]) | IC50 (HCT-116; [8]) | IC50 (CCD-18Co; [9]) | IC50 (HFL1; [10]) | IC50 (A549; A549, 72 h) | IC50 (PC14; PC-14, 72 h) | IC50 (HCT-116; HCT-116, 72 h) | IC50 (CCD-18Co; CCD-18Co, 72 h) | IC50 (HFL1; HFL1, 72 h) | IC50 (SUV39H2)
COc1cc(OC)c(-c2cn3ccc(N4CCN(c5ccnc(N(C)C)n5)CC4)cc3n2)cc1Cl [Example 297, 4-(4-(2-(5-chloro-2,4-dimethoxyphenyl)imidazo[1,2-a]pyridin-7-yl)-piperazin-1-yl)-N,N-dimethylpyrimidin-2-amine] | 0.43 µM | 0.47 µM | 0.33 µM | 0.72 µM | 0.65 µM | 0.0342 µM | – | – | – | – | – | – | – | – | – | – | –
COc1cc(OC)c(-c2cn3ccc(N4CCC(NS(C)(=O)=O)C4)cc3n2)cc1Cl (stereo not drawn) [Example 40, N-(1-(2-(5-chloro-2,4-dimethoxyphenyl)imidazo[1,2-a]pyridin-7-yl)pyrrolidin-3-yl)methanesulfonamide] | – | – | – | – | – | 0.00381 µM | 17 µM | 6.7 µM | 14 µM | 15 µM | 14 µM | – | – | – | – | – | –
COc1cc(OC)c(-c2cn3cc(NCCN)c(N4CCOCC4)c(F)c3n2)cc1Cl [Example 208, N^1-(2-(5-chloro-2,4-dimethoxyphenyl)-8-fluoro-7-morpholinoimidazo-[1,2-a]pyridine-6-yl)ethane-1,2-diamine] | – | – | – | – | – | 0.0291 µM | 10 µM | 8.4 µM | 10 µM | 5.9 µM | 8.4 µM | – | – | – | – | – | –
CNC1CCN(c2ccn3cc(-c4cc(Cl)c(OC)cc4OC)nc3c2)CC1 [Example 24, 1-(2-(5-chloro-2,4-dimethoxyphenyl)imidazo[1,2-a]pyridin-7-yl)-N-methylpiperidin-4-amine hydrochloride] | – | – | – | – | – | – | – | – | – | – | – | 5.5 µM | 5.7 µM | 4.4 µM | 11 µM | 2.7 µM | 0.00939 µM
COc1cc(OC)c(-c2cn3ccc(OC4CCN(c5ccnc(N)n5)CC4)cc3n2)cc1Cl [Example 284, 4-(4-((2-(5-chloro-2,4-dimethoxyphenyl)imidazo[1,2-a]pyridin-7-yl)oxy)-piperidin-1-yl)pyrimidin-2-amine] | 1.5 µM | 0.98 µM | 0.71 µM | 1.3 µM | 1.1 µM | 0.0918 µM | – | – | – | – | – | – | – | – | – | – | –
COc1cc(OC)c(-c2cn3ccc(N4CCN(c5cccnc5)CC4)cc3n2)cc1Cl [Example 296, 2-(5-chloro-2,4-dimethoxyphenyl)-7-(4-(pyridin-3-yl)piperazin-1-yl)imidazo[1,2-a]pyridine] | 0.66 µM | 0.64 µM | 0.56 µM | 0.79 µM | 0.73 µM | 0.013 µM | – | – | – | – | – | – | – | – | – | – | –
COc1cc(OC)c(-c2cn3ccc(N4CCN(c5ccnc(N)n5)CC4)cc3n2)cc1Cl [Example 279, 4-(4-(2-(5-chloro-2,4-dimethoxyphenyl)imidazo[1,2-a]pyridin-7-yl)-piperazin-1-yl)pyrimidin-2-amine] | 0.32 µM | 0.38 µM | 0.32 µM | 0.33 µM | 0.33 µM | 0.00938 µM | – | – | – | – | – | – | – | – | – | – | –
COc1cc(OC)c(-c2cn3ccc(N4CCC(NC(C)=O)C4)nc3n2)cc1Br (stereo not drawn) [Example 66] | – | – | – | – | – | 0.00747 µM | 25 µM | 16 µM | 18 µM | 27 µM | 26 µM | – | – | – | – | – | –
COc1cc(OC)c(-c2cn3ccc(N4CCCN(S(=O)(=O)C5CC5)CC4)cc3n2)cc1Cl [Example 187, 2-(5-chloro-2,4-dimethoxyphenyl)-7-[4-(cyclopropylsulfonyl)-1,4-diazepan-1-yl]imidazo[1,2-a]pyridine] | – | – | – | – | – | 0.00574 µM | 2.1 µM | 1.4 µM | 1.9 µM | 5 µM | 2.1 µM | – | – | – | – | – | –
COc1cc(OC)c(-c2cn3ccc(N4CCN(C(=O)OC(C)(C)C)CC4)nc3n2)cc1Cl [Example 145, tert-butyl 4-[2-(5-chloro-2,4-dimethoxyphenyl)imidazo[1,2-a]pyrimidin-7-yl]piperazine-1-carboxylate] | – | – | – | – | – | 0.0738 µM | 1.9 µM | 1.5 µM | 3.1 µM | 2.8 µM | 2.8 µM | – | – | – | – | – | –
